9 compounds from PubChem BioAssay (NCI) can be followed below.

The structures appear in SMILES notation.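 Five concentrations, 48 hours, 96-well plates. Abbreviation: GI50, concentration required for 50% inhibition of growth. TGI is the concentration that stops growth completely.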 *1 amine or outer side, *2 acyl side, *3 side chain or, on linkers, in order; H or OH if unused. Where a SMILES comes first, the peptide text is derived from it. Bridges are numbered along the chain shown (N, C = ends). [ ]: non-standard residue; d: D form. The star is where a group is joined. Phe(3-Me) = Cc1cccc(C[C@H](N)C(=O)O)c1; NH(4-Cl-2-F-phenyl) = Fc1cc(Cl)ccc1N*; Pro(4R-Me) = C[C@H]1CN[C@H](C(=O)O)C1; Hyp = O=C(O)[C@@H]1C[C@@H](O)CN1; aThr = C[C@H](O)[C@H](N)C(=O)O; Pip = O=C(O)[C@@H]1CCCCN1; CO = O=C([*:1])[*:2]

Some test systems named below: A498 renal; CCRF-CEM leukemia; HCT-116 colon; HCT-15 colon; HOP-62 NSCLC; NCI-H522 lung; RXF 393 renal; SF-268 CNS; SK-MEL-5 melanoma; UACC-257 melanoma.
What all share (test): inhibition of tumour cell growth, NCI panel, 48 h

Consider `Cc1cccc(C[C@H](NC(=O)Nc2ccc(Cl)cc2F)C(=O)N[C@@H]2C(=O)N3C[C@H](O)C[C@H]3C(=O)N3CCCC[C@H]3C(=O)N[C@@H](C)C(=O)N3C[C@H](C)C[C@H]3C(=O)O[C@H]2C)c1` ({NH(4-Cl-2-F-phenyl)-CO}-[Phe(3-Me)][aThr][Hyp][Pip]A[Pro(4R-Me)]; ester 2-C), for which the GI50 in the assay on A498 renal was 0.327 µM; with CCRF-CEM leukemia, 0.52 µM; in the assay with HCT-116 colon it was 0.404 µM; in the assay on HCT-15 colon, 1.93 µM; with HOP-62 NSCLC, 0.484 µM; in the assay with NCI-H522 lung, 0.464 µM. Further, the GI50 was 1.31 µM in the assay on RXF 393 renal, 0.499 µM with SF-268 CNS, 0.492 µM with SK-MEL-5 melanoma and 0.388 µM in the assay with UACC-257 melanoma. The TGI came out at 2.15 µM in the assay on A498 renal; 12 µM with CCRF-CEM leukemia; 1.66 µM in the assay with HCT-116 colon; 4.34 µM in the assay with HCT-15 colon; 3.62 µM in the assay on HOP-62 NSCLC; 2.6 µM in the assay with NCI-H522 lung. Besides, the TGI in the assay on RXF 393 renal stood at 2.96 µM; in the assay with SF-268 CNS, 4.02 µM; in the assay with SK-MEL-5 melanoma, 1.7 µM; in the assay with UACC-257 melanoma, 2.2 µM.

In the case of `O=C(Nc1ccncc1)C(=O)c1cn(S(=O)(=O)c2ccccc2F)c2ccccc12`, the GI50 was 5.47 µM with A498 renal; 4.35 µM in the assay on CCRF-CEM leukemia; 0.504 µM in the assay with HCT-116 colon; 0.546 µM in the assay with HCT-15 colon; 1.96 µM in the assay on HOP-62 NSCLC; 0.371 µM in the assay with NCI-H522 lung. Moreover, the GI50 is 2.44 µM with RXF 393 renal, 2.32 µM in the assay on SF-268 CNS, 0.693 µM in the assay with SK-MEL-5 melanoma and 5.51 µM with UACC-257 melanoma. The TGI is 63.3 µM in the assay with A498 renal; above 100 µM in the assay on CCRF-CEM leukemia; above 37.8 µM in the assay on HCT-116 colon; above 100 µM with HCT-15 colon; 34.3 µM in the assay on HOP-62 NSCLC; 4.09 µM with NCI-H522 lung. Besides, the TGI was 9.18 µM in the assay with RXF 393 renal, above 79.3 µM with SF-268 CNS, 16.2 µM with SK-MEL-5 melanoma and above 78.4 µM in the assay with UACC-257 melanoma.

In the case of `CN(/N=N/c1nc(OCc2ccccc2)c2[nH]cnc2n1)C(=O)N(C)/N=N/c1nc(OCc2ccccc2)c2[nH]cnc2n1`, the GI50 with A498 renal was 19.7 µM; in the assay on CCRF-CEM leukemia, 49.6 µM; with HCT-116 colon, 35.2 µM; with HCT-15 colon, 35.4 µM; with HOP-62 NSCLC, 96.1 µM; in the assay with NCI-H522 lung it was 39.4 µM. Besides, the GI50 is 79.9 µM in the assay with RXF 393 renal, 47.6 µM with SF-268 CNS, 20.9 µM with SK-MEL-5 melanoma and 54.7 µM in the assay with UACC-257 melanoma. Besides, the TGI is 54 µM in the assay on A498 renal; above 100 µM in the assay on CCRF-CEM leukemia; above 100 µM with HCT-116 colon; above 100 µM in the assay with HCT-15 colon; above 100 µM in the assay on HOP-62 NSCLC; above 100 µM with NCI-H522 lung. The TGI is above 100 µM with RXF 393 renal, above 100 µM in the assay on SF-268 CNS, 61.5 µM in the assay with SK-MEL-5 melanoma and above 100 µM in the assay on UACC-257 melanoma.

`CCOc1cc2ncc(C#N)c(Nc3ccc(F)c(Cl)c3)c2cc1NC(=O)/C=C/CN(C)C`: the GI50 in the assay on A498 renal is 0.145 µM; in the assay on CCRF-CEM leukemia it was 1.13 µM; with HCT-116 colon it was 0.333 µM; in the assay with HCT-15 colon, 0.245 µM; with HOP-62 NSCLC, 1.27 µM; with NCI-H522 lung it was 0.0231 µM. Also, the GI50 with RXF 393 renal is 0.255 µM; with SF-268 CNS, 0.265 µM; in the assay on SK-MEL-5 melanoma, 2.93 µM; in the assay with UACC-257 melanoma it was 1.27 µM. Besides, the TGI is 0.799 µM in the assay on A498 renal; above 7.16 µM in the assay on CCRF-CEM leukemia; 1.83 µM in the assay on HCT-116 colon; 4.07 µM with HCT-15 colon; above 10 µM in the assay on HOP-62 NSCLC; 0.732 µM in the assay on NCI-H522 lung. In addition, the TGI was 3.46 µM in the assay with RXF 393 renal, above 6.99 µM with SF-268 CNS, above 10 µM in the assay on SK-MEL-5 melanoma and above 6.03 µM in the assay with UACC-257 melanoma.

As to `COc1ccc2nc(NC(=O)C(=O)CC(=O)c3ccc(Cl)cc3)sc2c1`, the TGI in the assay on A498 renal, with CCRF-CEM leukemia, in the assay with HCT-116 colon, in the assay with HCT-15 colon, in the assay with HOP-62 NSCLC and in the assay with NCI-H522 lung was above 100 µM in each case. Moreover, the TGI in the assay with RXF 393 renal, in the assay on SF-268 CNS, in the assay with SK-MEL-5 melanoma and with UACC-257 melanoma was above 100 µM in each case.

As for `CC(=O)Oc1cccc2c1C(=O)C(Br)(Br)CCC2`, the TGI amounted to 33.4 µM in the assay with A498 renal; 9.91 µM in the assay with CCRF-CEM leukemia; 9.66 µM in the assay with HCT-116 colon; 29.4 µM with HCT-15 colon; 22 µM with HOP-62 NSCLC; 4.55 µM in the assay with NCI-H522 lung. The TGI was 12.6 µM in the assay on RXF 393 renal, 42.7 µM in the assay on SF-268 CNS, 14.4 µM in the assay on SK-MEL-5 melanoma and 25 µM in the assay on UACC-257 melanoma.

Consider `N#CSCC1CC(O)(c2ccccc2)C(c2ccccc2)C(c2ccc(F)cc2)O1` (stereo not given), for which the GI50 in the assay with A498 renal was 18.1 µM; with CCRF-CEM leukemia, 3.09 µM; with HCT-116 colon it was 1.28 µM; in the assay on HCT-15 colon, 3.05 µM; with HOP-62 NSCLC it was 8.81 µM; in the assay on NCI-H522 lung, 2.4 µM. Further, the GI50 is 2.22 µM with RXF 393 renal, 2.57 µM in the assay on SF-268 CNS, 4.84 µM in the assay with SK-MEL-5 melanoma and 3.66 µM with UACC-257 melanoma. For the same compound, the TGI was 45.9 µM in the assay with A498 renal; above 100 µM in the assay on CCRF-CEM leukemia; 2.9 µM in the assay with HCT-116 colon; 10.2 µM in the assay on HCT-15 colon; 24.3 µM in the assay on HOP-62 NSCLC; 7.24 µM in the assay with NCI-H522 lung. Besides, the TGI amounted to 4.4 µM in the assay on RXF 393 renal, 7.25 µM with SF-268 CNS, 17.2 µM in the assay on SK-MEL-5 melanoma and 13.5 µM with UACC-257 melanoma.

As for `Cc1c(C(=O)CC(=O)C(=O)Nc2cccc(C(F)(F)F)c2)[n+](=O)c2ccccc2n1[O-]`, the TGI in the assay with A498 renal stood at 35.8 µM; in the assay with CCRF-CEM leukemia, 7.24 µM; with HCT-116 colon it was 10.2 µM; in the assay with HCT-15 colon, 10.3 µM; with HOP-62 NSCLC, 57.6 µM; in the assay with NCI-H522 lung, 5.5 µM. The TGI in the assay with RXF 393 renal was determined as 39.5 µM; in the assay with SF-268 CNS, 14.4 µM; in the assay on SK-MEL-5 melanoma, 14 µM; in the assay on UACC-257 melanoma, 6.73 µM.

Turning to `O[C@]12CCCC[C@H]1CCC2`, the TGI with A498 renal, with CCRF-CEM leukemia, in the assay on HCT-116 colon, in the assay with HCT-15 colon, with HOP-62 NSCLC and in the assay on NCI-H522 lung was above 100 µM in each case. Besides, the TGI in the assay on RXF 393 renal, in the assay on SF-268 CNS, with SK-MEL-5 melanoma and in the assay on UACC-257 melanoma was above 100 µM in each case.
